# Tested on: 292921-168-R-J2-PDC spheroids with HUVEC/MSC, viability
# Assay: Anticancer human tumor 292921-168-R-J2-PDC patient-derived pancreatic carcinoma cell line growth inhibition [TAK]
# Conditions: for IC50: curve of first compound; for viability, T/C: stronger effect = lower value
# Method in brief: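 Tumor cells were grown as spheroids with HUVEC and hMSC (60:25:15) and treated with targeted agents combined with TAK-243 or ipatasertib. Drugs were tested in half-log steps down from near the clinical Cmax, or from 10 microM where Cmax was unknown.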
# [1] = second compound 0.3 µM, first compound 0.0316 µM
# [2] = second compound 0.3 µM, first compound 0.1 µM
# [3] = second compound 0.3 µM, first compound 0.316 µM
# [4] = second compound 0.3 µM, first compound 1 µM
# [5] = second compound 0.3 µM, first compound 3.16 µM
# [6] = second compound 0.3 µM, first compound 10 µM
# [7] = second compound 0.949 µM, first compound 0.0316 µM
# [8] = second compound 0.949 µM, first compound 0.1 µM
# [9] = second compound 0.949 µM, first compound 0.316 µM
# [10] = second compound 0.949 µM, first compound 1 µM
# [11] = second compound 0.949 µM, first compound 3.16 µM
# [12] = second compound 0.949 µM, first compound 10 µM
# [13] = second compound 3 µM, first compound 0.0316 µM
# [14] = second compound 3 µM, first compound 0.1 µM
# [15] = second compound 3 µM, first compound 0.316 µM
# [16] = second compound 3 µM, first compound 1 µM
# [17] = second compound 3 µM, first compound 3.16 µM
# [18] = second compound 3 µM, first compound 10 µM
# [19] = second compound 9.49 µM, first compound 0.0316 µM
# [20] = second compound 9.49 µM, first compound 0.1 µM
# [21] = second compound 9.49 µM, first compound 0.316 µM
# [22] = second compound 9.49 µM, first compound 1 µM
# [23] = second compound 9.49 µM, first compound 3.16 µM
# [24] = second compound 9.49 µM, first compound 10 µM
# [25] = second compound 30 µM, first compound 0.0316 µM
# [26] = second compound 30 µM, first compound 0.1 µM
# [27] = second compound 30 µM, first compound 0.316 µM
# [28] = second compound 30 µM, first compound 1 µM
# [29] = second compound 30 µM, first compound 3.16 µM
# [30] = second compound 30 µM, first compound 10 µM
# [31] = second compound 0.3 µM, first compound 0.000316 µM
# [32] = second compound 0.3 µM, first compound 0.001 µM
# [33] = second compound 0.3 µM, first compound 0.00316 µM
# [34] = second compound 0.3 µM, first compound 0.01 µM
# [35] = second compound 0.949 µM, first compound 0.000316 µM
# [36] = second compound 0.949 µM, first compound 0.001 µM
# [37] = second compound 0.949 µM, first compound 0.00316 µM
# [38] = second compound 0.949 µM, first compound 0.01 µM
# [39] = second compound 3 µM, first compound 0.000316 µM
# [40] = second compound 3 µM, first compound 0.001 µM
# [41] = second compound 3 µM, first compound 0.00316 µM
# [42] = second compound 3 µM, first compound 0.01 µM
# [43] = second compound 9.49 µM, first compound 0.000316 µM
# [44] = second compound 9.49 µM, first compound 0.001 µM
# [45] = second compound 9.49 µM, first compound 0.00316 µM
# [46] = second compound 9.49 µM, first compound 0.01 µM
# [47] = second compound 30 µM, first compound 0.000316 µM
# [48] = second compound 30 µM, first compound 0.001 µM
# [49] = second compound 30 µM, first compound 0.00316 µM
# [50] = second compound 30 µM, first compound 0.01 µM
# 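Also: spheroids exposed to drugs for seven days before readout.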
structure (smiles),measurement,setting,value
CC(C)(C)c1nc(-c2cccc(NS(=O)(=O)c3c(F)cccc3F)c2F)c(-c2ccnc(N)n2)s1 + CC(C)NCC(C(=O)N1CCN(c2ncnc3c2C(C)CC3O)CC1)c1ccc(Cl)cc1,IC50,second compound 0.3 µM,2270 nM
same,IC50,second compound 0.949 µM,1800 nM
same,IC50,second compound 3 µM,1250 nM
same,IC50,second compound 9.49 µM,682 nM
same,IC50,second compound 30 µM,< 31.6 nM
same,"viability, T/C",[1],94.8%
same,"viability, T/C",[2],94.7%
same,"viability, T/C",[3],88.7%
same,"viability, T/C",[4],74.2%
same,"viability, T/C",[5],40.1%
same,"viability, T/C",[6],20.5%
same,"viability, T/C",[7],85.2%
same,"viability, T/C",[8],92%
same,"viability, T/C",[9],80.5%
same,"viability, T/C",[10],66.9%
same,"viability, T/C",[11],34.2%
same,"viability, T/C",[12],17.9%
same,"viability, T/C",[13],83.4%
same,"viability, T/C",[14],85.9%
same,"viability, T/C",[15],77.4%
same,"viability, T/C",[16],55.2%
same,"viability, T/C",[17],27.5%
same,"viability, T/C",[18],15.8%
same,"viability, T/C",[19],72.5%
same,"viability, T/C",[20],70.8%
same,"viability, T/C",[21],64.7%
same,"viability, T/C",[22],42.5%
same,"viability, T/C",[23],22.7%
same,"viability, T/C",[24],15.2%
same,"viability, T/C",[25],46.5%
same,"viability, T/C",[26],49.8%
same,"viability, T/C",[27],44.1%
same,"viability, T/C",[28],35.6%
same,"viability, T/C",[29],19.8%
same,"viability, T/C",[30],14.1%
CC(C)CC(NC(=O)CNC(=O)c1cc(Cl)ccc1Cl)B1OC(=O)CC(CC(=O)O)(C(=O)O)O1 (stereo not given) + CC(C)NCC(C(=O)N1CCN(c2ncnc3c2C(C)CC3O)CC1)c1ccc(Cl)cc1,IC50,second compound 0.3 µM,27.6 nM
same,IC50,second compound 0.949 µM,23.9 nM
same,IC50,second compound 3 µM,23.7 nM
same,IC50,second compound 9.49 µM,17.9 nM
same,IC50,second compound 30 µM,< 0.316 nM
same,"viability, T/C",[31],91.7%
same,"viability, T/C",[32],86.2%
same,"viability, T/C",[33],88.8%
same,"viability, T/C",[34],86.2%
same,"viability, T/C",[1],45.2%
same,"viability, T/C",[2],10.8%
same,"viability, T/C",[35],84.6%
same,"viability, T/C",[36],85.8%
same,"viability, T/C",[37],85.2%
same,"viability, T/C",[38],85.5%
same,"viability, T/C",[7],38.8%
same,"viability, T/C",[8],11%
same,"viability, T/C",[39],75.8%
same,"viability, T/C",[40],80.2%
same,"viability, T/C",[41],73.3%
same,"viability, T/C",[42],80.2%
same,"viability, T/C",[13],40.9%
same,"viability, T/C",[14],9.38%
same,"viability, T/C",[43],62%
same,"viability, T/C",[44],60.3%
same,"viability, T/C",[45],60.4%
same,"viability, T/C",[46],68.2%
same,"viability, T/C",[19],37.6%
same,"viability, T/C",[20],6.83%
same,"viability, T/C",[47],41.4%
same,"viability, T/C",[48],41.2%
same,"viability, T/C",[49],42.4%
same,"viability, T/C",[50],44.2%
same,"viability, T/C",[25],31.8%
same,"viability, T/C",[26],7.05%
CC(C)n1nc(-c2ccc3oc(N)nc3c2)c2c(N)ncnc21 + CC(C)NCC(C(=O)N1CCN(c2ncnc3c2C(C)CC3O)CC1)c1ccc(Cl)cc1,IC50,second compound 0.3 µM,9.58 nM
same,IC50,second compound 0.949 µM,8.57 nM
same,IC50,second compound 3 µM,6.94 nM
same,IC50,second compound 9.49 µM,2.52 nM
same,IC50,second compound 30 µM,< 0.316 nM
same,"viability, T/C",[31],81%
same,"viability, T/C",[32],77.2%
same,"viability, T/C",[33],67.4%
same,"viability, T/C",[34],49.9%
same,"viability, T/C",[1],35.3%
same,"viability, T/C",[2],32.2%
same,"viability, T/C",[35],81.6%
same,"viability, T/C",[36],70.9%
same,"viability, T/C",[37],63.7%
same,"viability, T/C",[38],48.9%
same,"viability, T/C",[7],35%
same,"viability, T/C",[8],32.2%
same,"viability, T/C",[39],73.6%
same,"viability, T/C",[40],73%
same,"viability, T/C",[41],62.2%
same,"viability, T/C",[42],43.8%
same,"viability, T/C",[13],34.2%
same,"viability, T/C",[14],29%
same,"viability, T/C",[43],63.7%
same,"viability, T/C",[44],57%
same,"viability, T/C",[45],48.3%
same,"viability, T/C",[46],37.8%
same,"viability, T/C",[19],27.6%
same,"viability, T/C",[20],26.3%
same,"viability, T/C",[47],43.4%
same,"viability, T/C",[48],39.7%
same,"viability, T/C",[49],33.7%
same,"viability, T/C",[50],26.4%
same,"viability, T/C",[25],23.9%
same,"viability, T/C",[26],21.7%
CCCS(=O)(=O)Nc1ccc(F)c(C(=O)c2c[nH]c3ncc(-c4ccc(Cl)cc4)cc23)c1F + CC(C)NCC(C(=O)N1CCN(c2ncnc3c2C(C)CC3O)CC1)c1ccc(Cl)cc1,IC50,second compound 0.3 µM,29900 nM
same,IC50,second compound 0.949 µM,> 100000 nM
same,IC50,second compound 3 µM,11000 nM
same,IC50,second compound 9.49 µM,5500 nM
same,IC50,second compound 30 µM,< 316 nM
same,"viability, T/C",[3],109%
same,"viability, T/C",[4],106%
same,"viability, T/C",[5],102%
same,"viability, T/C",[6],67.5%
same,"viability, T/C","second compound 0.3 µM, first compound 31.6 µM",44.7%
same,"viability, T/C","second compound 0.3 µM, first compound 100 µM",52.2%
same,"viability, T/C",[9],95.2%
same,"viability, T/C",[10],104%
same,"viability, T/C",[11],89.6%
same,"viability, T/C",[12],52.5%
same,"viability, T/C","second compound 0.949 µM, first compound 31.6 µM",41.4%
same,"viability, T/C","second compound 0.949 µM, first compound 100 µM",65.2%
same,"viability, T/C",[15],94.7%
same,"viability, T/C",[16],96%
same,"viability, T/C",[17],81.3%
same,"viability, T/C",[18],44.2%
same,"viability, T/C","second compound 3 µM, first compound 31.6 µM",41%
same,"viability, T/C","second compound 3 µM, first compound 100 µM",16.8%
same,"viability, T/C",[21],72.5%
same,"viability, T/C",[22],75.4%
same,"viability, T/C",[23],62.5%
same,"viability, T/C",[24],35.5%
same,"viability, T/C","second compound 9.49 µM, first compound 31.6 µM",26.2%
same,"viability, T/C","second compound 9.49 µM, first compound 100 µM",17.7%
same,"viability, T/C",[27],48.3%
same,"viability, T/C",[28],49.2%
same,"viability, T/C",[29],35.7%
same,"viability, T/C",[30],16.6%
same,"viability, T/C","second compound 30 µM, first compound 31.6 µM",14.9%
same,"viability, T/C","second compound 30 µM, first compound 100 µM",9.5%
